We go through four compounds from ChEMBL document CHEMBL4033691, “Discovery and structure-guided fragment-linking of 4-(2,3-dichlorobenzoyl)-1-methyl-pyrrole-2-carboxamide as a pyruvate kinase M2 activator” (Bioorg Med Chem, 2017).

For data set [1], the target named is T1, Pyruvate kinase PKM (Homo sapiens, UniProt P14618). Put plainly: Activation of full length recombinant human N-terminal His6-tagged PKM2 expressed in Escherichia coli BL21(DE3) at 10 ug/ml using PEP as substrate preincubated for 5 mins followed by substrate addition measured after 90 mins in presence of ADP by Kinase-Glo luminescence assay relative to control. For orientation: In Kinase-Glo more light means more ATP remaining.
Target sequence in this assay (P14618 2-531 limits assumed): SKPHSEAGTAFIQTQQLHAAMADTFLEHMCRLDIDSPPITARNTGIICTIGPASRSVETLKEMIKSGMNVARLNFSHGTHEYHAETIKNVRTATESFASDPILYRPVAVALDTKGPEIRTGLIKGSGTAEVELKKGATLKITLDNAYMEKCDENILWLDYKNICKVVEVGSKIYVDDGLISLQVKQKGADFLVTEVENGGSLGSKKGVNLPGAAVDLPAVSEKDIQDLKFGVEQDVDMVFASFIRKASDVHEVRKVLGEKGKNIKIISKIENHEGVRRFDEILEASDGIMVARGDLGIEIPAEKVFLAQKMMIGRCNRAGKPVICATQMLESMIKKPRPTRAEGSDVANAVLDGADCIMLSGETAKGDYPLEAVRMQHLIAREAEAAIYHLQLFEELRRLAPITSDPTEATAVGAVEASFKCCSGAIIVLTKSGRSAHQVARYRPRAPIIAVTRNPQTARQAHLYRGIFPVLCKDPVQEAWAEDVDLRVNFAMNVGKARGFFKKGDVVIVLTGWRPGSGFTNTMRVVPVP

Data set [2] is described as follows: Stability of the compound. In kind it is physicochemical.
Data set [3] has as its target T1, Pyruvate kinase PKM. Put plainly: Activation of full length recombinant human N-terminal His6-tagged PKM2 expressed in Escherichia coli BL21(DE3) using PEP as substrate preincubated for 5 mins followed by substrate addition measured after 90 mins in presence of ADP by Kinase-Glo luminescence assay.
In data set [4] the target is T1, Pyruvate kinase PKM. Put plainly: Activation of PKM2 in human A549 cells using PEP as substrate preincubated for 1 hr followed by substrate addition measured after 1 hr in presence of ADP by Kinase-Glo luminescence assay. The data set is classed as cell-based.
Target sequence in this assay (P14618 whole entry): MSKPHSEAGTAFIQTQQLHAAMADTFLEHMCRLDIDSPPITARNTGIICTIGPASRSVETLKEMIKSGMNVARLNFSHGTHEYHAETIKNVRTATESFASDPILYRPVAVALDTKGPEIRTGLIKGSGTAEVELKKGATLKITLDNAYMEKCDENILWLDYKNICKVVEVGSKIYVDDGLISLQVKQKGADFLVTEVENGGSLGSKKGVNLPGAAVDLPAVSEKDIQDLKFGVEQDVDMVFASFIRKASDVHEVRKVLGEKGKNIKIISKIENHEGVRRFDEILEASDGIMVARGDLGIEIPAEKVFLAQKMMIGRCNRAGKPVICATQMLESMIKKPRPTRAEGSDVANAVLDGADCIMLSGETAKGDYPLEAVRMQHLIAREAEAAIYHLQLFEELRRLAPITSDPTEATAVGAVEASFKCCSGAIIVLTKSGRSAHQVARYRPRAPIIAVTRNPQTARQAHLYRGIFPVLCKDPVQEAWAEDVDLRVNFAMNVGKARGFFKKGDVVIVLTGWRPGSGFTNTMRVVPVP
For data set [5], the target named is T1, Pyruvate kinase PKM. Nature of the data set: Activation of PKM2 in human A549 cells using PEP as substrate preincubated for 1 hr followed by substrate addition measured after 1 hr in presence of ADP by Kinase-Glo luminescence assay relative to control. In kind it is cell-based.
Target sequence in this assay (P14618 2-531 limits assumed): as the sequence (P14618 2-531 limits assumed) above
A further data set relates to A549. Nature of the data set: Growth inhibition of human A549 cells after 72 hrs in presence of serine by CellTiter-Glo luminescent assay. The data set is classed as functional, cell-based. Background: ATP-based viability assays read luminescence as a measure of living cells.

Active and inactive are the calls of the source. The calls are words filed in the database; no cut-off is given here. Bounds are passed on as bounds.

Consider `Cn1cc(C(=O)c2cccc(Cl)c2Cl)cc1C(=O)NCNC(=O)c1cc(C(=O)c2cccc(Cl)c2Cl)cn1C`, for which the Emax at Pyruvate kinase PKM [1] was found to be 194%. For the same compound, in data set [2], the Stability result is “Unstable”.
Take `Cn1cc(C(=O)c2cccc(Cl)c2Cl)cc1C(N)=O`: at Pyruvate kinase PKM [3], the AC200 came out at 26 µM. For the same compound, the Emax on Pyruvate kinase PKM [1] came out at 198%. Also, on Pyruvate kinase PKM [4], the concentration at half-maximal activity (AC50) is more than 100000 nM.
Take `O=S(=O)(c1ccc2c(c1)OCCO2)N1CCN(S(=O)(=O)c2c(F)cccc2F)CC1`: the AC50 on Pyruvate kinase PKM [3] turned out to be 150 nM. Moreover, the Emax on Pyruvate kinase PKM [1] amounted to 181%.
`Cn1cc(C(=O)c2cccc(Cl)c2Cl)cc1C(=O)NCCNC(=O)c1cc(C(=O)c2cccc(Cl)c2Cl)cn1C`: on Pyruvate kinase PKM [1], the maximal response (Emax) turned out to be 184%. On Pyruvate kinase PKM [4], the AC50 came to 188 nM. Besides, on Pyruvate kinase PKM [5], the Activity came to 598%. For the same compound, the “growth inhibition (GI)” value in the data set on A549 is “inactive”.

The term Emax denotes the size of the effect at its maximum, as opposed to the concentration needed. By AC50 is commonly meant the concentration at which the activity in the assay is half-maximal.
